Assay results taken from US20160296538A1, “[…] RESPONSE BIOMARKER FOR TH-302 ANTI-CANCER THERAPY” (THRESHOLD PHARMACEUTICALS, INC., priority 2013, published 2016).
Entries after “also recorded” stand apart in the source; their conditions may differ.

Legend:
[1] = tested on: H460 human non-small cell lung cancer (NSCLC) cell line; test: H460 NSCLC xenograft tumor growth, repeated dosing; format: in vivo; conditions: H460 model; 50 mg/kg QDx5 for 2 wk, i.p.; P vs vehicle <0.001
From the text: (§1) H460 is a high hypoxic fraction tumor model, while the 786-O RCC model is well-vascularized with very low hypoxia. […] When compiling the data from both H460 and 786-O tumors, there was significant correlation between [18F]-HX4 uptake and pimonidazole-positive hypoxic fraction (HF %, R2=0.55, p=0.006).
(§2) The utility of [18F]-HX4 to serve as a predictive biomarker for TH-302 anti-cancer efficacy was shown by the significant correlation observed between the TH-302 anti-cancer efficacy in a model and its hypoxic fraction as measured by [18F]-HX4. […] TGD500 was determined as the increased time (days) for the treated tumor's size on average to reach 500 mm^3 as compared with the vehicle group. TGI was defined as (1−ΔT/ΔC)×100, where ΔT/ΔC is the ratio of the change in mean tumor volume of the treated group (ΔT) and of the control group (ΔC).

[2] = tested on: 786-O human renal cell carcinoma (RCC) cell line; test: 786-O RCC xenograft tumor growth, repeated dosing; format: in vivo; conditions: 786-O model; 50 mg/kg QDx5 for 2 wk, i.p.; P vs vehicle >0.05
From the text: as §1, §2

[3] = tested on: H460 non-small cell lung cancer xenograft; test: H460 ectopic xenograft tumor growth and body weight, 150 mg/kg i.p.; format: in vivo, nu/nu mice
From the text: (§3) Proliferating cells (as measured by Ki-67 immunostaining) were decreased as well; DNA damage (as measured by γH2AX immunostaining) and necrosis (as measured by hematoxylin and eosin, H&E, staining) were increased. There was regional co-localization of pimonidazole and CA-IX, but not co-localization of pimonidazole and two other putative endogenous hypoxia markers: Glut-1 or HIF-1α.
The human H460 non-small cell lung cancer human tumor ectopic xenograft model was employed for this study. The H460 non-small cell lung cancer xenograft model was established by s.c. implantation of 1×10^6 cells in the flank of nu/nu mice. When the tumor size was 100 mm^3, a single dose of TH-302 (150 mg/kg, i.p.) or vehicle was administered.

[4] = tested on: H460 xenograft tumor hypoxia ([18F]-HX4 uptake); test: [18F]-HX4 PET/CT imaging of H460 xenograft tumors; format: in vivo, nu/nu mice
From the text: as §3
(§4) Three biomarker platforms were employed in this study: positron emission tomography (PET) imaging employing the tracer [18F]-HX4; immunohistochemistry of isolated tumor tissue employing antibodies directed against the exogenous hypoxia biomarker pimonidazole and the endogenous hypoxia biomarker carbonic anhydrase IX (CA-IX); and ELISA-based quantification of circulating plasma CA-IX.
(§5) [18F]-HX4 uptake was assessed by PET/CT imaging, and the tumor to muscle ratio (T/M) was determined. […] Blood was collected from the pre- and post-treated animals via retro-orbital venipuncture. Plasma CA-IX changed from baseline 165±13 to 104±9.3 pg/ml 72 hours after TH-302 dosing, a 37% reduction (p<0.05; n=10 per group). […] For tissue biomarker analysis, tumors were harvested 72 hours after TH-302 treatment, and tumor hypoxia was assessed by semi-quantitative morphometric analysis of the PIMO immunostaining at that time. […]

[5] = tested on: carbonic anhydrase IX (CA-IX); test: ELISA quantification of circulating plasma CA-IX in H460 xenograft animals; format: in vivo, nu/nu mice; conditions: for circulating plasma CA-IX level change: 72 hours, TH-302 150 mg/kg i.p., doxorubicin 4 mg/kg iv
Experimental: as §4
[18F]-HX4 uptake was assessed by PET/CT imaging, and the tumor to muscle ratio (T/M) was determined. […] Blood was collected from the pre- and post-treated animals via retro-orbital venipuncture. […] For tissue biomarker analysis, tumors were harvested 72 hours after TH-302 treatment, and tumor hypoxia was assessed by semi-quantitative morphometric analysis of the PIMO immunostaining at that time.

[6] = tested on: H460 xenograft tumor hypoxia (pimonidazole); test: Pimonidazole immunostaining of H460 tumors (hypoxic fraction); format: in vivo, nu/nu mice
From the text: as §3, §4, §5

H460 xenograft tumors = test: Tissue biomarkers in H460 tumors (Ki67, γH2AX, H&E); format: in vivo, nu/nu mice; conditions: 72 hours after 150 mg/kg i.p.
Experimental: as §3
[18F]-HX4 uptake was assessed by PET/CT imaging, and the tumor to muscle ratio (T/M) was determined. […] Blood was collected from the pre- and post-treated animals via retro-orbital venipuncture. Plasma CA-IX changed from baseline 165±13 to 104±9.3 pg/ml 72 hours after TH-302 dosing, a 37% reduction (p<0.05; n=10 per group). […] For tissue biomarker analysis, tumors were harvested 72 hours after TH-302 treatment, and tumor hypoxia was assessed by semi-quantitative morphometric analysis of the PIMO immunostaining at that time. The hypoxic fraction (HF) was 13±1.7% in the vehicle group (n=5) and 5.8±0.5% in the TH-302 treatment group (n=6, p<0.05).

[7] = 72 hrs after one dose at 150 mg/kg i.p.

| Structure (SMILES) | TGD500 (increased time for treated tumor to reach 500 mm^3 vs vehicle) [1] | TGI [1] | TGD500 (increased time for treated tumor to reach 500 mm^3 vs vehicle) [2] | TGI [2] | tumor growth in relation to initial [18F]-HX4 uptake ([3]; 150 mg/kg i.p., Q4-5Dx3) | tumor volume change [3, 7] | TGD1000 (tumor growth delay to tumor size of 1000 mm^3) ([3]; single dose 150 mg/kg i.p.) | maximum body weight loss ([3]; single dose 150 mg/kg i.p.) | TGI (tumor growth inhibition) ([3]; single dose 150 mg/kg i.p. at tumor size 100 mm^3) | [18F]-HX4 tumor to muscle ratio (T/M) ([4]; 72 hours after 150 mg/kg i.p., pre-treatment 3.3±0.3, p<0.005) | [18F]-HX4 uptake change (PET-CT) [4, 7] | Plasma CA-IX ([5]; 72 hours after dosing 150 mg/kg i.p., baseline 165±13, n=10 per group) | Plasma CA-IX reduction from baseline ([5]; 72 hours after dosing 150 mg/kg i.p., p<0.05) | circulating plasma CA-IX level change [5] | hypoxic fraction (HF %) change, pimonidazole immunostaining ([6]; 72 hours after treatment) | hypoxic fraction (HF), PIMO immunostaining ([6]; tumors harvested 72 hours after 150 mg/kg i.p., vehicle 13±1.7%, n=6, p<0.05) | DNA damage (γH2AX immunostaining) (H460 xenograft tumors) | Proliferating cells (Ki67 immunostaining) (H460 xenograft tumors) | necrosis (hematoxylin and eosin staining) (H460 xenograft tumors) |
| --- | --- | --- | --- | --- | --- | --- | --- | --- | --- | --- | --- | --- | --- | --- | --- | --- | --- | --- | --- |
| Cn1c(COP(=O)(NCCBr)NCCBr)cnc1[N+](=O)[O-] [TH-302, (2-bromoethyl)({[(2-bromoethyl)amino][(2-nitro-3-methylimidazol-4-yl)methoxy]phosphoryl})amine] | 18 days | 89% | 10 days | 10% | tumors with higher initial [18F]-HX4 uptake grew slower | did not change significantly | 10 days | 2% | 58% | 2.1±0.2 | significantly reduced | 104 ± 9.3 pg/mL | 37% | significantly reduced | significantly reduced | 5.8±0.5% | significantly increased | decreased; also recorded: significantly reduced | significantly increased |
| COc1cccc2c1C(=O)c1c(O)c3c(c(O)c1C2=O)C[C@@](O)(C(=O)CO)C[C@@H]3O[C@H]1C[C@H](N)[C@H](O)[C@H](C)O1 [doxorubicin, reference compound] |  |  |  |  |  |  |  |  |  |  |  |  |  | did not change circulating CA-IX levels significantly; also recorded: No change |  |  |  |  |  |
